1 compound from US6544540B2, “Base-triggered release microcapsules” (priority 1998, dated 2003) can be followed below.

The structures appear in SMILES notation.

One data set concerns Lygus hesperus. The data set is described as follows: Test 1 A. Contact/Residue Contact, adult bugs in cages sprayed, mortality. In kind it is in vivo. The text has this: Lygus hesperius was the subject in this test. Adult bugs in cages were sprayed at 250 l/h. There were four replicates of 10 insects for 5 rates of each formulation. Mortality assessments were made at 1, 2, 3, 4, 5, and 6 DAT.

A further data set concerns Heliothis virescens. The data set is described as follows: Test 1 B. Foliar Persistence, neonate larvae on disks of sprayed detached cotton leaves, mortality. In kind it is in vivo. Conditions: cotton leaf disks.

For `CCOP(=S)(OCC)Oc1nc(Cl)c(Cl)cc1Cl` [Chlorpyrifos technical, chlorpyrifos], the “LC50 1DAT” value in the data set with Lygus hesperus (mortality at 1 DAT, sprayed at 250 l/h) is on record as 313 ppm; in the data set with Heliothis virescens (mortality at 1 DAT) it was 9.8 ppm. Further, the “LC50 2DAT” value stood at 310 ppm in the data set with Lygus hesperus (mortality at 2 DAT, sprayed at 250 l/h) and 8.6 ppm in the data set on Heliothis virescens (mortality at 2 DAT). For the same compound, the “LC50 3DAT” value in the data set with Lygus hesperus (mortality at 3 DAT, sprayed at 250 l/h) is given as 311 ppm; in the data set on Heliothis virescens (mortality at 3 DAT), 12.2 ppm. For the same compound, in the data set on Lygus hesperus (mortality at 4 DAT, sprayed at 250 l/h), the “LC50 4DAT” value turned out to be 313 ppm. The “LC50 5DAT” value in the data set with Lygus hesperus (mortality at 5 DAT, sprayed at 250 l/h) came out at 313 ppm. Besides, the “LC50 6DAT” value in the data set with Lygus hesperus (mortality at 6 DAT, sprayed at 250 l/h) came out at 325 ppm. In addition, the LC50 (usually the concentration lethal to half of the exposed cells or organisms) in the data set on Lygus hesperus (previous test results, Lygus hesperus contact/residue contact) was approximately 300 ppm. Also, in the data set on Heliothis virescens (Total over 1-3 DAT), the “LC50 Total” value stood at 10.2 ppm.
